Laboratory results as given in US7550438B2, “Methods for production of growth-promoting proteins and peptides for kidney epithelial cells” (The University of Chicago, priority 1997, dated 2009).
Where “and” joins values, the source holds several entries; their conditions need not be identical. Identical values can stand only once. Entries after “also recorded” stand apart in the source; their conditions may differ. Like-named read-outs stand apart in the source and are kept apart here. No end group written: not given here.

What was measured:
[1] = test system: BSC-1 cells; assay: Time of contact with cells required to commit them to accelerated growth (washout, count at four days); assay type: cell-based, African green monkey; settings: for exposure time sufficient for maximal growth stimulation (commitment time): peptide then washed off, cells counted four days later
Protocol: Confluent monolayers of BSC-1 cells are prepared as herein and exposed to the 14-Ser peptide (0.5 μg/ml) for different amounts of time (0 to 30 minutes). At the end of the defined exposure period, culture medium containing the mitogen was aspirated, the monolayer was rinsed to remove non-adherent peptide, and fresh medium was added. Four days later the number of cells in the culture was counted.
In these experiments a solution containing the peptide of interest was added to the cell monolayer; culture medium was then aspirated at a specified time thereafter. Then fresh medium without the peptide was added and the number of cells was counted four days later.

[2] = test system: monkey kidney epithelial cells of the BSC-1 line; assay: Growth-promoting (mitogenic) activity: number of cells in BSC-1 cultures counted four days after addition; assay type: cell-based, African green monkey; settings: for mitogenic activity on BSC-1 cells (in words): peptide 0.5 to 20 μg/ml; for mitogenic activity on BSC-1 cells (in words) / stimulation of growth in the presence of the 14-Ser peptide: four days; for stimulation of growth (increase in cell number compared to control at four days): agent alone at maximal mitogenic concentration (14-Ser 0.5 μg/ml; EGF, IGF-I 50 ng/ml; acidic FGF 100 pg/ml; basic FGF 1,000 pg/ml; vasopressin 75 pg/ml; K 10.4 mM; Na 180 mM); for stimulation of growth in the presence of the 14-Ser peptide: mitogenic signal at maximal concentration plus 14-Ser peptide 0.5 μg/ml; for EC50: read-out: Growth-Stimulation K½
Protocol: For the assay, cells were detached from the dish with a solution of trypsin and an aliquot was counted in a hemocytometer.
Nontransformed monkey kidney epithelial cells of the BSC-1 line were grown to confluence in Dulbecco's modified Eagle's medium containing 1% calf serum and […] in 55-mm culture dishes at 38° C. in a CO2 incubator. When cells achieved a density of about 10^6 per dish, the spent medium was removed and replaced with fresh medium containing 0.5% calf serum and the 14-amino acid peptide (0.5 μg/ml). Additions of each of the mitogenic signals at maximal concentration were made to the culture medium. Four days later the number of cells in each culture was counted in a hemocytometer. Values obtained were the mean of 3 separate cultures.
Nontransformed monkey kidney epithelial cells of the BSC-1 line were grown to confluence in Dulbecco's modified Eagle's medium containing 1% calf serum and 1.6 μM biotin at 38° C. in a CO2 incubator. When cells achieved a density of about 10^6 per dish, the spent medium was removed and replaced with fresh medium containing 0.5% calf serum and different amounts of the two peptides. Four days later the number of cells in each culture was counted. Each value is the mean of 3 separate cultures.
To delineate the sequence of the smallest peptide that could stimulate renal cell growth, synthetic peptides of different lengths were prepared (see below), and purified by reversed-phase HPLC on a C18 column.
The peptide of interest was then purified on a reversed-phase C18 column HPLC as described herein using a gradient of 1-80% acetonitrile in 0.1% trifluroacetic acid (TFA). The purified peptide was then lyophilized to remove the acetonitrile and TFA and the lyophilized powder was weighed, dissolved in buffer and added to the culture medium to measure its effect on the growth of monkey kidney epithelial cells as described herein. […] A value termed the K1/2, was used.

[3] = test system: BSC-1 cells; assay: Inhibition of WGF and WGF-derived peptide mitogenesis in BSC-1 cells; assay type: cell-based, African green monkey; settings: for effect of pentamer on growth stimulation by hexamer YPQGNH: pentamer added to culture medium, hexamer added at the same time or afterwards
Description: In these studies the pentamers, PQGNH (SEQ ID NO: 36) or YPQGN (SEQ ID NO: 3) were synthesized, purified by HPLC and then assayed for growth-promoting activity. […] Because the pentamers are not mitogenic, when they bind to the site, growth is not observed. After pentamers are bound to the site, the pentamers appear to prevent the hexapeptide from gaining access to the membrane.
Transforming growth factor (TGF)-β2 is an autocrine growth inhibitor secreted by BSC-1 cells that limits proliferation in culture. Exogenous TGF-β2 was added to the culture medium to determine its capacity to inhibit the growth-promoting effect of 14-Ser. TGF-β2 at a concentration of 1 ng/ml was sufficient to abolish the 25% stimulation of growth induced by 14-Ser. At a TGF-β2 concentration of 2 ng/ml, growth was inhibited by 30% in the presence or absence of 14-Ser; at 10 ng/ml, inhibition was 60%.
Because TGF-β2 inhibits proliferation induced by diverse mitogens, a more specific inhibitor was sought. […] Cells were preincubated for 30 minutes with the pentapeptide YPQGN (SEQ ID NO: 3). The culture medium was then aspirated, the monolayer was rinsed, fresh medium was added, and the number of cells counted 4 days later. Preincubation of cells with YPQGN (SEQ ID NO: 3) inhibited the mitogenic effect of the 6-amino acid peptide.

[4] = test system: rats with mercuric chloride-induced acute renal failure; assay: Mercuric chloride-induced acute renal failure in rats: survival and renal function; assay type: in vivo, rat
Description: Nephrotoxic and ischemic acute renal failure (ARF) induced experimentally in rats have long been used to model this syndrome in humans. […] Male rats weighed 200-225 gm at the start of the experiment. This dose was used because preliminary experiments indicated it results in survival of 25-50% of the animals 7 days later. […] An increase in serum creatinine concentration signals a decline in renal function because the injured kidney is unable to excrete endogenous creatinine in the urine so it accumulates in the blood.
The synthetic peptide […] (14-Ser) (SEQ ID NO: 15) (dissolved in sterile 0.01% bovine serum albumin in phosphate-buffered saline) was injected subcutaneously into rats to determine its effect on survival, recovery of renal fucntion, and stimulation of DNA synthesis. Multiple different peptides were studied including 14-Ser, […] (14-mer) (SEQ ID NO: 39), […] (16-mer) (SEQ ID NO: 4) […] (11-mer) (SEQ ID NO: 6), and […] (11-mer) (SEQ ID NO: 41). Different concentrations and times of administration were tested and compared.
Acute tubular necrosis was induced in 44 rats by the subcutaneous (s.c.) injection of mercuric chloride, and a single dose of 14-ser was administered s.c. 1 hour afterwards. Different amounts of the peptide were given to assesses its capacity to affect the outcome. Survival 7 days later was about twice as high in animals given 100-150 μg of peptide (63%) than in rats given 0-75 μg peptide (29%).
To determine the effect of the peptide on survival and recovery of renal function, acute tubular necrosis was induced in 59 rats; 29 received 14-Ser (100 μg/rat) and 30 received an equal volume of the vehicle s.c. 1 hour after administration of mercuric chloride. Enhanced survival (top panel) and renal functional recovery (bottom panel) of rats give a WGF-derived peptide after mercuric chloride-induced acute tubular necrosis are shown in FIG. 2A and FIG. 2B. Mercuric chloride was injected subcutaneously into each of the 59 rats, and 1 hour later 100 μg of WGF peptide (14-Ser) (n=29 rats) or the vehicle […] was given. Survival was greater in rats given the peptide than in animals receiving the vehicle as early as day 3 after administration of mercuric chloride. Blood was obtained from the tail vein on the days indicated, and serum creatinine concentration was measured. […] On days 2, 3 and 4, the lower creatinine concentration in peptide-treated rats indicates accelerated recovery of kidney function.
Experimental ARF was induced in rats by subcutaneous injection of mercuric chloride. The synthetic peptide […] […] In one experiment a total of 17 rats were injected with a dose of mercuric chloride shown to induce ARF. The different amounts of the peptide (known to stimulate growth of kidney cells in culture) were injected into the animals to assess capacity to improve the outcome. […] In contrast, two of three rats given 100 micrograms of peptide were alive, as were five of six given 200 micrograms. In summary, none of eight rats (0%) given up to 50 micrograms of peptide survived, whereas seven of nine (78%) given 100-200 micrograms did. Thus, the 11-mer WGF peptide improves survival in nephrotoxic ARF.
[…] Four days later, 63% of rats given the 14-Ser peptide were alive compared to 25% of animals receiving the vehicle (chi squared, P-0.0499); 50% of rats receiving EGF were alive (chi squared, P=N.S.). On day 5, 50% of rats given EGF were alive, compared to 12.5% of animals given the vehicle (chi squared, P=0.0436). […] These observations indicate that the 14-Ser peptide and EGF given after renal injury are similar in their ability to improve survival from the ARF syndrome.

[5] = peptide alone, BSC-1 cells, 4 days in culture

## Nc1ncnc2c1ncn2[C@@H]1O[C@H](COP(=O)(O)O)[C@@H](O)[C@H]1O [adenosine monophosphate, reference compound]
[1]
  commitment time: 14 h

## PQGNH
[2]
  mitogenic activity on BSC-1 cells (in words): Neither was mitogenic; also recorded: do not alter growth
[3]
  effect of pentamer on growth stimulation by hexamer YPQGNH: blocked

## [Cl-].[K+] [potassium chloride, reference compound]
[2]
  stimulation of growth (increase in cell number compared to control at four days): 18%
  stimulation of growth in the presence of the 14-Ser peptide: 35%

## FPEGNH
[2]; [5]
  EC50: 2.72 µM

## AQPYPEGNHEASYG
[2]; [5]
  EC50: 0.128 µM

## insulin-like growth factor-I [IFG-I, reference compound]
[2]
  stimulation of growth (increase in cell number compared to control at four days): 20%
  stimulation of growth in the presence of the 14-Ser peptide: 38%

## QPYPQG
[2]
  mitogenic activity on BSC-1 cells (in words): not mitogenic

## YPQGNH [NH2-tyrosine-proline-glutamine-glycine-asparagine-histidine-COOH]
[2]; [5]
  EC50: 0.352 µM and 0.332 µM

## YPQGN
[2]
  mitogenic activity on BSC-1 cells (in words): Neither was mitogenic; also recorded: do not alter growth
[3]
  effect of preincubation on mitogenic effect of partially-purified Wound Growth Factor: completely abolished
  effect of pentamer on growth stimulation by hexamer YPQGNH: blocked
[3]; cells preincubated 30 minutes, rinsed, count 4 days later
  effect of preincubation on mitogenic effect of the 6-amino acid peptide YPQGNH: inhibited
[3]; preincubation for 10 or 30 minutes
  effect of preincubation on growth-promoting effect of the 14-Ser peptide: completely blocked

## Pentosan polysulfate [reference compound]
[3]
  effect on activity of WGF: blocked

## YPRGNH [reference compound]
[2]
  stimulation of growth (increase in cell number compared to control at four days): 10%
  mitogenic activity on BSC-1 cells (in words): not mitogenic to the same extent

## NC(=O)CC[C@@H]1NC(=O)[C@H](Cc2ccccc2)NC(=O)[C@H](Cc2ccc(O)cc2)NC(=O)[C@@H](N)CSSC[C@@H](C(=O)N2CCC[C@H]2C(=O)N[C@@H](CCCN=C(N)N)C(=O)NCC(N)=O)NC(=O)[C@H](CC(N)=O)NC1=O [vasopressin, reference compound]
[2]
  stimulation of growth (increase in cell number compared to control at four days): 14%
  stimulation of growth in the presence of the 14-Ser peptide: 36%
[1]
  exposure time sufficient for maximal growth stimulation (commitment time): 2 min

## YPEGDH
[2]; [5]
  EC50: 11 µM

## YPQGNHEASYG
[2]; + heparin (1 μg/ml)
  EC50: 0.166 µM
[2]; [5]
  EC50: 0.166 µM

## AQPYPQGNHEAQPYPQGNHEAQPYPQGNHEAQPYPQGNHE
[2]; [5]
  EC50: 0.007 µM
[1]
  exposure time sufficient for maximal growth stimulation (commitment time): behaved similarly

## YPEGNH
[2]; [5]
  EC50: 0.301 µM
[1]; cells exposed to keratan sulfate 2 μg/ml for 5 minutes before peptide
  exposure time for maximal mitogenic effect after keratan sulfate pretreatment: 1.5 min
[1]
  exposure time sufficient for maximal growth stimulation (commitment time): 3 min

## AQPYPQGNHEAAYG
[2]; + keratan sulfate (2 μg/ml for 5 minutes prior to peptide, b158; 10 μg/ml)
  EC50: 0.054 µM
[2]; [5]
  EC50: 0.199 µM

## YPQGNH [YPQGNH-amide]
[2]; [5]
  EC50: 8.85 µM

## AQPYPEGNHEA
[2]; [5]
  EC50: 0.206 µM
[4]; 50 micrograms s.c. two hours after mercuric chloride
  rats dead three days later: three of three
[4]; 100-200 micrograms of peptide, nine rats
  survival three days later: 78%
[4]; 100 micrograms s.c. two hours after mercuric chloride
  rats alive three days later: two of three
[4]; 200 micrograms s.c. two hours after mercuric chloride
  rats alive three days later: five of six
[4]; up to 50 micrograms of peptide (incl. saline alone), eight rats
  survival three days later: 0%

## acidic fibroblast growth factor [acidic FGF, reference compound]
[2]
  concentration equivalent in mitogenic potency to partially-purified WGF: 0.02 ng/mL
  effect of keratan sulfate on mitogenic activity: no effect
  stimulation of growth (increase in cell number compared to control at four days): 17%
  stimulation of growth in the presence of the 14-Ser peptide: 44%
[2]; heparin added to BSC-1 cells with the factor
  effect of heparin on mitogenic activity: inhibits
[2]; maximal concentrations, 11-mer with wound conditioned buffer
  combined mitogenic effect with WGF (additivity): additive

## WAVGHLM [WAVGHLM-amide, reference compound]
[2]; [5]
  EC50: ~10 µM

## [Cl-].[Na+] [sodium chloride, reference compound]
[2]
  stimulation of growth (increase in cell number compared to control at four days): 25%
  stimulation of growth in the presence of the 14-Ser peptide: 41%

## MAPS peptide: 11-mer AQPYPQGNHEA linked to a branched polylysine core, four branches each ligated to one 11-mer molecule (also: four copies linked to a branched polylysine core (MAPS))
[2]
  mitogenic activity on BSC-1 cells (in words): stimulated DNA synthesis and proliferation

## AQPYPQGNHEATSSSF
[2]; [5]
  EC50: 0.218 µM

## YPEGKH
[2]; [5]
  EC50: 14.1 µM

B1: TGF-β2: autocrine growth inhibitor secreted by BSC-1 cells (protein, UniProt P61811 303-414, looked up)
Transforming growth factor …: ALDAAYCFRNVQDNCCLRPLYIDFKRDLGWKWIHEPKGYNANFCAGACPYLWSSDTQHSRVLSLYNTINPEASASPCCVSQDLEPLTILYYIGKTPKIEQLSNMIVKSCKCS
[3]; TGF-β2 1 ng/ml
  effect on the 25% stimulation of growth induced by 14-Ser: abolish
[3]; TGF-β2 2 ng/ml, in the presence or absence of 14-Ser
  growth inhibition: 30%
[3]; TGF-β2 10 ng/ml
  growth inhibition: 60%
